Measured values: patent publication US20060110472A1, “Use of allicin as insect repellent and insecticide in agricultural crops” (priority 2002, published 2006)

Columns and labels:
[1] = test system: Fruit flies, Drosophila Melanogaster; test: Egg laying of fruit flies on plates containing allicin (repellent activity); type: in vivo
Protocol: Fruit flies, Drosophila Melanogaster, were grown in a plastic container and allowed to lay eggs in laying bottles (6×4 cm) containing allicin (100 μl) in various concentrations (0-12 mM). Allicin was introduced to the egg-laying sites on a ring of Whatman (3 mm) paper placed at the periphery of the egg laying plate which was placed at the bottom of the bottle. A yeast paste (fly food) was applied in the middle of the plate. Female fruit flies (N=100) were introduced into the laying bottle and were allowed to lay eggs for 16 hours. At the end of the 16 hours, the number of eggs was counted in each plate. The total number of eggs laid by the flies was 1440. The repellent effect of allicin on the fruit fly was determined by measuring the number of laid eggs during the continuous exposure of the flies to the various concentrations of allicin. The results are shown in FIG. 1a as a percentage of laid eggs in the presence of each concentration of allicin in comparison with the number of eggs laid by flies in the absence of allicin (first column, left—100%). […] At the end of the 8 hours, the number of eggs was counted in each plate. […] The repellent effect of allicin on the fruit fly was determined by measuring the number of laid eggs in allicin-free plates for 8 hours after the 16-hour exposure of the flies to the various concentrations of allicin. […]

[2] = test system: hatched larvae of fruit fly; test: Lethality of hatched larvae on egg-laying plates with allicin; type: in vivo, Drosophila Melanogaster; conditions: allicin stock 1-2 mg/ml added to egg-laying plates, about 200 eggs per plate
Protocol: In an additional experiment, lethality of 80-90% of the hatched larvae produced in the second phase of the fly life cycle was caused by addition of allicin (stock 1-2 mg/ml) to egg-laying plates containing about 200 eggs per plate (not shown).

[3] = test system: fruit flies that attack the persimmon trees; test: Spraying of persimmon trees with allicin, repellent effect on fruit flies; type: in vivo, fruit fly; conditions: trees sprayed with water solution 0.1-0.2 g/l (0.5-1 mM) every second week, 12 weeks, 6 sessions, FIG. 2
Protocol: (§1) Persimmon trees (Oriental persimmon of the type “Fuyu”, 2.5-3 meters tall) in the Hasharon region, Israel, were sprayed with a water solution of allicin (0.1-0.2 g/l, 0.01-0.02% or 0.5-1 mM) every second week, during a 12-week period, for a total of 6 sessions. Spraying with allicin was started 2-3 weeks after persimmon fruit setting, when the fruits reached 1-2 cm in diameter. The spraying was performed in such a way as to wet the leaves and the fruits completely. No other insecticides or other treatments were used in parallel or at any point of the experiment. FIG. 2 is a photograph showing persimmon fruits from trees treated with allicin (left) and from untreated trees (right).

[4] = test system: Persimmon trees (Oriental persimmon of the type "Fuyu"); test: Damage to leaves of persimmon trees after spraying with allicin; type: in vivo; conditions: water solution 0.1-0.2 g/l, 6 sprayings over 12 weeks
Protocol: as §1

[5] = test system: ants; test: Repellent effect of allicin on ants; type: in vivo
Protocol: Treatment of the locus of an ant colony with a water solution of allicin (1 mg/ml) prevented the ants from reentering the place for at least 3 days.

In the case of `C=CCS[S+]([O-])CC=C` (stereo not shown) [allicin, thio-2-propene-1-sulfinic acid S-allyl ester], the “repellent activity, inhibition of egg laying by the flies (% of eggs laid vs no allicin)” value ([1]; 0-12 mM allicin (100 μl), 16 hours continuous exposure, FIG. 1a) is reported as “dose-dependent”, the “inhibition of capability of the flies to lay eggs on allicin-free plates after exposure” value ([1]; 8 hours on allicin-free plates after 16 hours exposure to 0-12 mM allicin, FIG. 1b) is reported as “significant inhibition effect” and the “lethality of hatched larvae” value [2] is reported as 80-90%. The “repellent effect on fruit flies, appearance of persimmon fruits” value [3] was “repellent effect on fruit flies”, the “damage to leaves after spraying” value [4] was “no damage” and the “crossing of a treated line in the floor by ants” value ([5]; water solution of allicin 1 mg/ml on a line in the floor, even after the solution dried off) was “prevented the crossing of the line by ants”. For the same compound, the “time ants were prevented from reentering the treated locus of the colony” value ([5]; water solution of allicin 1 mg/ml on locus of an ant colony) was “at least 3 days”.
